Data reported in patent US20100197789A1, “ANTI-OBESITY AGENT AND USE THEREOF” (National University Corporation Nagoya University, priority 2006, published 2010).

Legend:
Type in all cases: in vivo, mouse
POMC mRNA = assay: In situ hybridization, POMC mRNA in hypothalamic arcuate nucleus, db/db mice; details: after 5 weeks, 1.1 and 2.7 mg/dl in drinking water, NIH image quantitation
Description: (§1) 5 week-old male C57BL/KsJ-db/db mice (db/db mice: body weight 19 to 25 g, Japan SLC, Inc.) were purchased and individually fed in tip cages. For the db/db mice, normal pellet diet (CE-2) was administered under free water intake and free food intake. A body weight and a food intake amount over 24 hours were measured every day from the start of feeding. On day 3 after the start of feeding, blood was taken from an orbit after 6 hour-fasting and a blood glucose level and a blood insulin concentration were measured. The db/db mice were divided into three groups (10 mice per each group) so that a body weight, a 24 hour-food intake amount, a blood glucose level, and a blood insulin concentration were equal, and defined to be a control group, a low concentration baclofen treated group, and a high concentration baclofen treated group. […] A food intake amount and a body weight were measured over time during the period of 5 week-administration of (±)-baclofen, blood was taken after the end of the 5-week administration, and the db/db mice were sacrificed by cervical luxation. […] The epididymal white adipose tissues and subcutaneous white adipose tissues were measured in weights, and then fixed in 4% formaldehyde and preserved at 4° C. […]

NPY mRNA [1] = assay: In situ hybridization, NPY mRNA in hypothalamic arcuate nucleus, db/db mice; details: after 5 weeks, 1.1 and 2.7 mg/dl in drinking water, NIH image quantitation
Description: as §1

NPY mRNA [2] = assay: In situ hybridization, NPY mRNA in hypothalamic arcuate nucleus, DIO mice; details: (±)-baclofen oral 5 weeks
Description: A hypothalamic section with a thickness of 12 μm was prepared from the brain preserved at −80° C. by using a cryostat and stuck to a MAS coat slide and then in situ hybridization was performed. For a label of NPY mRNA and POMC mRNA probes, ^35S was used. The hypothalamic section was pretreated by using triethanolamine, ethanol and the like, and then 12 hour-hybridization was performed at 55° C. After the hybridization, the hypothalamic section was treated by washing with SSC, RNase, etc. After development to a film, the mRNA expression strength was assayed by using the NIH image.
(±)-baclofen was orally administered to DIO mice for 5 weeks according to the above method, and then the DIO mice were sacrificed. A brain was surgically removed, and changes in expression amounts of NPY mRNA and POMC mRNA in the hypothalamic arcuate nucleus were examined by using an in situ hybridization method.

DIO mice [3] = assay: Fasting blood glucose, HbA1c, blood insulin, plasma leptin and adiponectin after 5-week administration, DIO mice
Description: (§2) The blood glucose level was measured by a glucose analyzer Antisense (HORIBA, Ltd.) promptly after taking blood from an orbit. HbA1c was measured by a glycohemoglobin analyzer HLC-723 GHbV (manufactured by TOSOH Corporation) after preserving blood at −80° C.
(§3) After taking blood from an orbit by using a hematocrit tube coated with heparin, blood was centrifuged at 3500 rpm at 4° C. for 15 minutes, and plasma was preserved at −80° C. The plasma concentrations of insulin, leptin and adiponectin were measured by the ELISA method (levis insulin kit (mouse): Shibayagi Co., Ltd., Morinaga Leptin assay kit: Morinaga Institute of Biological Science, Inc., Mouse/rat adiponectin ELISA kit: OTSUKA Pharmaceutical Co., Ltd.).
(±)-baclofen (5 mg/kg/day), SKF97541 (0.3 mg/kg/day) or 3-APPA (5 mg/kg/day) was orally administered to DIO mice for 5 weeks according to the above described method, and then blood was taken from an orbit after 6 hour-fasting and a blood glucose level, an HbA1c value and a blood insulin concentration were measured.
(§4) (±)-baclofen (5 mg/kg/day) was orally administered to DIO mice for 5 weeks according to the above described method, and then, blood was taken from an orbit after 6 hour-fasting, and a plasma leptin concentration and a plasma adiponectin concentration were measured. The DIO mice were sacrificed by cervical luxation after the end of the 5-week administration, and then epididymal white adipose tissues and subcutaneous white adipose tissues were surgically removed, and after measuring the weights, they were fixed in 4% formaldehyde. The epididymal white adipose tissues were cut out to prepare a section with a thickness of 8 μm and subjected to Hematoxylin-Eosin stain (H-E stain) and a form (size) of a fat cell was examined by using an image analysis system, Neurolucida (MicroBrightField Japan, Inc.).

DIO mice [4] = assay: White adipose tissue weights and fat cell size, DIO mice; details: (±)-baclofen 5 mg/kg/day oral 5 weeks
Description: as §4

db/db mice = assay: Blood glucose level, HbA1c and plasma hormone concentrations after 5-week administration, db/db mice; details: 1.1 and 2.7 mg/dl in drinking water
Description: 5 week-old male C57BL/KsJ-db/db mice (db/db mice: body weight 19 to 25 g, Japan SLC, Inc.) were purchased and individually fed in tip cages. For the db/db mice, normal pellet diet (CE-2) was administered under free water intake and free food intake. A body weight and a food intake amount over 24 hours were measured every day from the start of feeding. On day 3 after the start of feeding, blood was taken from an orbit after 6 hour-fasting and a blood glucose level and a blood insulin concentration were measured. The db/db mice were divided into three groups (10 mice per each group) so that a body weight, a 24 hour-food intake amount, a blood glucose level, and a blood insulin concentration were equal, and defined to be a control group, a low concentration baclofen treated group, and a high concentration baclofen treated group. After division into the groups, from day 5 after the start of feeding, (±)-baclofen was dissolved in drinking water and 5 week-continuous oral administration to the baclofen treated groups was started. (±)-baclofen was dissolved in drinking water at a concentration of 1.1 mg/dl in the low concentration treated group and at a concentration of 2.7 mg/dl in the high concentration treated group. A food intake amount and a body weight were measured over time during the period of 5 week-administration of (±)-baclofen, blood was taken after the end of the 5-week administration, and the db/db mice were sacrificed by cervical luxation. Brains, epididymal white adipose tissues, subcutaneous white adipose tissues and brown adipose tissues were surgically removed. The brains and brown adipose tissues were frozen in dry ice and liquid nitrogen immediately after the removal and then preserved at −80° C. The epididymal white adipose tissues and subcutaneous white adipose tissues were measured in weights, and then fixed in 4% formaldehyde and preserved at 4° C.
as §2, §3

DIO mice [5] = assay: Rectal temperature, oxygen consumption and motor activity, DIO mice
Description: (±)-baclofen was orally administered to db/db mice and DIO mice for 5 weeks and rectal temperatures were measured 5 weeks after the start of the administration, and oxygen consumptions and motor activity were measured by using a small animal metabolism measuring system (model MK-5000: Muromachi Kikai Co., Ltd.).

[6] = 6 hour-fasting after 5 weeks oral, (±)-baclofen 5, SKF97541 0.3, 3-APPA 5 mg/kg/day, vs control
[7] = (±)-baclofen 5 mg/kg/day oral 5 weeks, 6 hour-fasting

In the case of `NCC(CC(=O)O)c1ccc(Cl)cc1` (racemic) [(±)-baclofen, (RS)-4-amino-3-(4-chlorophenyl)butanoic acid], the “expression of POMC mRNA in the hypothalamic arcuate nucleus” value (POMC mRNA) is reported as “significantly enhanced”, the “expression of NPY mRNA in the hypothalamic arcuate nucleus” value (NPY mRNA [1]) is reported as “significantly suppressed” and the “expression of NPY mRNA in the hypothalamic arcuate nucleus” value (NPY mRNA [2]) is reported as “significantly suppressed”. For the same molecule, the “fasting blood glucose level” value (DIO mice [3]; [6]) was “significant decreases”, the “fasting blood insulin concentration” value (DIO mice [3]; [6]) was “significant decreases” and the plasma adiponectin concentration (DIO mice [3]; [7]) was “significantly increased”. The plasma leptin concentration (DIO mice [3]; [7]) was “significantly decreased”, the HbA1c value (DIO mice [3]; after 5 weeks oral, (±)-baclofen 5, SKF97541 0.3, 3-APPA 5 mg/kg/day, vs control) was “significant decreases” and the “weight of epididymal white adipose tissues” value (DIO mice [4]) was “significantly decreased”. For the same molecule, the “weight of subcutaneous white adipose tissues” value (DIO mice [4]) was “significantly decreased”, the “size of a fat cell in the epididymal white adipose tissues” value (DIO mice [4]; H-E stain) was “decreased” and the blood adiponectin concentration (db/db mice; after 5 week-administration) was “Significant increases”. For the same molecule, the blood leptin concentration (db/db mice; after 5 week-administration) was “Significant increases”, the “fasting blood insulin level” value (db/db mice; after 5 week-administration) was “No change” and the HbA1c value (db/db mice; after administration for 5 weeks) was “Significant decreases”. For the same molecule, the “fasting blood glucose level” value (db/db mice; fasting for 6 hours, after 5 week-administration) was “significant suppression”, the oxygen consumption (DIO mice [5]; (±)-baclofen oral 5 weeks) was “significantly increased” and the “body temperature (rectal)” value (DIO mice [5]; (±)-baclofen oral, 5 weeks after start of administration) was “significantly raised”.
